ChEMBL document CHEMBL1142091, “Azithromycin selectively reduces tumor necrosis factor alpha levels in cystic fibrosis airway epithelial cells” (2007)
Calls of active or inactive are those of the source. No cut-off for these calls is given here.

Tests used:
IB3-1 [1] = assay: Reduction of NF-kappaB binding to DNA in cystic fibrosis IB3-1 cells at 8 ug after 24 hrs; type: functional
Homo sapiens [2] = organism: Homo sapiens; assay: (§1) Reduction of NF-kappaB binding to DNA in cystic fibrosis 16HBE14o-AS3 cells at 8 ug after 24 hrs; type: functional
Homo sapiens [3] = organism: Homo sapiens; assay: (§2) Reduction of NF-kappaB binding to DNA in cystic fibrosis 2CFSMEo cells at 8 ug after 24 hrs; type: functional
IB3-1 [4] = assay: Reduction of Sp1 binding to DNA in cystic fibrosis IB3-1 cells at 8 ug after 24 hrs; type: functional
Homo sapiens [5] = organism: Homo sapiens; assay: (§3) Reduction of Sp1 binding to DNA in cystic fibrosis 16HBE14o-AS3 cells at 8 ug after 24 hrs; type: functional
Homo sapiens [6] = organism: Homo sapiens; assay: (§4) Reduction of Sp1 binding to DNA in cystic fibrosis 2CFSMEo cells at 8 ug after 24 hrs; type: functional
IB3-1 [7] = assay: Reduction of TNFalpha mRNA level in cystic fibrosis IB3-1 cells at 8 ug after 24 hrs relative to control; type: functional, Homo sapiens; design: scale not given: the % may be the effect or the level left
[8] = Reduction of TNFalpha mRNA level in cystic fibrosis 16HBE14o-AS3 cells at 8 ug after 24 hrs relative to control; type: functional, Homo sapiens; design: scale not given: the % may be the effect or the level left
[9] = Reduction of TNFalpha mRNA level in cystic fibrosis 2CFSMEo cells at 8 ug after 24 hrs relative to control; type: functional, Homo sapiens; design: scale not given: the % may be the effect or the level left
IB3-1 [10] = assay: Reduction of TNFalpha protein level in cystic fibrosis IB3-1 cells at 8 ug after 24 hrs by ELISA relative to control; type: functional, Homo sapiens; design: scale not given: the % may be the effect or the level left
[11] = Reduction of TNFalpha protein level in cystic fibrosis 16HBE14oAS3 cells at 8 ug after 24 hrs by ELISA relative to control; type: functional, Homo sapiens; design: scale not given: the % may be the effect or the level left
[12] = Reduction of TNFalpha protein level in cystic fibrosis 2CFSMEo cells at 8 ug after 24 hrs by ELISA relative to control; type: functional, Homo sapiens; design: scale not given: the % may be the effect or the level left
[13] = as §1; type: functional, Homo sapiens; design: scale not given: the % may be the effect or the level left
[14] = as §2; type: functional, Homo sapiens; design: scale not given: the % may be the effect or the level left
[15] = as §3; type: functional, Homo sapiens; design: scale not given: the % may be the effect or the level left
[16] = as §4; type: functional, Homo sapiens; design: scale not given: the % may be the effect or the level left
[17] = Cell viability of IB3-1 cells at 8 ug/ml after 24 hrs by trypan blue exclusion test; type: functional, cell-based; conditions: Homo sapiens
[18] = Cell viability of 16HBE14o-AS3 cells at 8 ug/ml after 24 hrs by trypan blue exclusion test; type: functional; conditions: Homo sapiens
[19] = Cell viability of 16HBE14o-S1 cells at 8 ug/ml after 24 hrs by trypan blue exclusion test; type: functional, cell-based; conditions: Homo sapiens
[20] = Cell viability of 2CFSMEo cells at 8 ug/ml after 24 hrs by trypan blue exclusion test; type: functional; conditions: Homo sapiens
[21] = Cell viability of IB3-1 cells at 16 ug/ml after 24 hrs by trypan blue exclusion test; type: functional, cell-based; conditions: Homo sapiens
[22] = Cell viability of 16HBE14o-AS3 cells at 16 ug/ml after 24 hrs by trypan blue exclusion test; type: functional; conditions: Homo sapiens
[23] = Cell viability of 16HBE14o-S1 cells at 16 ug/ml after 24 hrs by trypan blue exclusion test; type: functional, cell-based; conditions: Homo sapiens
[24] = Cell viability of 2CFSMEo cells at 16 ug/ml after 24 hrs by trypan blue exclusion test; type: functional; conditions: Homo sapiens
[25] = Cell viability of C38 cells at 8 ug/ml after 24 hrs by trypan blue exclusion test
[26] = Cell viability of C38 cells at 16 ug/ml after 24 hrs by trypan blue exclusion test

## CO[C@@H]1[C@@H](O[C@@H]2O[C@H](C)[C@@H](O[C@H]3C[C@@](C)(O)[C@@H](OC(=O)CC(C)C)[C@H](C)O3)[C@H](N(C)C)[C@H]2O)[C@@H](CC=O)C[C@@H](C)[C@@H](O)/C=C/C=C/C[C@@H](C)OC(=O)C[C@H]1OC(C)=O
IB3-1 [1]; Homo sapiens
  Activity: inactive
Homo sapiens [2]
  Activity: inactive
Homo sapiens [3]
  Activity: inactive
IB3-1 [4]; Homo sapiens
  Activity: inactive
Homo sapiens [5]
  Activity: inactive
Homo sapiens [6]
  Activity: inactive

## CC[C@H]1OC(=O)[C@H](C)[C@@H](O[C@H]2C[C@@](C)(OC)[C@@H](O)[C@H](C)O2)[C@H](C)[C@@H](O[C@@H]2O[C@H](C)C[C@H](N(C)C)[C@H]2O)[C@](C)(O)C[C@@H](C)CN(C)[C@H](C)[C@@H](O)[C@]1(C)O [AZITHROMYCIN]
IB3-1 [7]
  Activity: 35%
[8]
  Activity: 25%
[9]
  Activity: 30%
IB3-1 [10]
  Activity: 45%
[11]
  Activity: 50%
[12]
  Activity: 40%
IB3-1 [1]
  Activity: 40%
[13]
  Activity: 45%
[14]
  Activity: 45%
IB3-1 [4]
  Activity: 60%
[15]
  Activity: 64%
[16]
  Activity: 65%
[17]
  Activity: > 95%
[18]
  Activity: > 95%
[19]
  Activity: > 95%
[20]
  Activity: > 95%
[21]
  Activity: < 95%
[22]
  Activity: < 95%
[23]
  Activity: < 95%
[24]
  Activity: < 95%
[25]
  Activity: >95%
[26]
  Activity: <95%
